Test results from PMC6271500, “Bowman-Birk Protease Inhibitor from Vigna unguiculata Seeds Enhances the Action of Bradykinin-Related Peptides” (Molecules, 2014).
Where no end group is shown, it is not given here.

Legend:
[1] = Dynamic light scattering, free peptides and free BTCI; format: physicochemical; conditions: 25 µM, 2 mM Tris-HCl pH 7.4, 37 °C
Method: (§1) The hydrodynamic properties of the BTCI through the complex formation with Bk and analogues were monitored using DLS technique with laser source operated at 800 nm on the DynaPro LSR model (Wyatt Technology Corporation, Santa Barbara, CA, USA). The internal temperature was controlled by a Peltier system coupled to the detector. The Bk, Bk-related peptides, BTCI and BTCI-Bk, BTCI-Bk-related peptides complexes, were incubated for 30 minutes in 2 mM Tris-HCl pH 7.4 and then centrifuged at 5000 g and filtered ([…]) before the DLS experiments. The average of 100 acquisitions for each measure was considered for BTCI (25 µM) and synthetic Bk-related peptides (25 µM) separately and subsequently for the BTCI-Bk complexes (1:1). The formation of complexes was analyzed at 37 °C, considering the relationship of the scattered light intensity signal and the hydrodynamic diameter of the samples, using the Dynamics V6 program (Wyatt Technology Corporation).

BTCI [2] = experiment: Dynamic light scattering, BTCI-Bk complex formation; format: binding, Vigna unguiculata; conditions: BTCI 25 µM : peptide 25 µM (1:1), 30 min, 2 mM Tris-HCl pH 7.4, 37 °C
Method: as §1

BTCI [3] = experiment: Fluorescence quenching of BTCI by Bk-related peptides; format: binding, Vigna unguiculata; conditions: for Binding constant Kb (association) of BTCI in complex with peptide / Stern-Volmer quenching constant KSV of BTCI in complex with peptide: BTCI 25 µM, peptide 25-500 µM; for Stern-Volmer quenching constant KSV of BTCI in complex with peptide: excitation 295 nm, emission at 355 nm
Method: Fluorescence measurements were performed at pH 5.0, 7.4 and 9.0 and 25 °C using the Jasco FP-6500 spectrofluorimeter (Jasco Analytical Instruments) coupled to a Jasco ETC-273T Peltier system (Jasco Analytical Instruments) with water circulation. Both excitation and emission slit were fitted to 5.0 nm and the excitation and emission wavelength were 295 nm and 300–400 nm, respectively. The concentration of BTCI was 25 µM, whereas the concentration of Bk and Bk-related peptides varied from 25 to 500 µM. The BTCI in complex with peptides were investigated by fluorescence quenching as a function of pH. The averages of five fluorescence spectra were recorded and processed by the program Spectra Manager (Jasco Analytical Instruments). The fluorescence emissions were fitted according to the classic Stern-Volmer equation (Equation (2)): F0/F = 1 + KSV[Q] (2) where F and F0 are the fluorescence intensities in the presence and absence of quencher, respectively, KSV is Stern-Volmer constant and Q is the concentration of the quencher.
The binding constants for BTCI, Bk and Bk-related peptides interaction were calculated according to Equation (3): Log[(F0 − F)/F] = LogKb + nLog[Q] (3) where Kb is the binding constant and n is the number of binding sites per BTCI [47].

[4] = tested on: guinea pig (Cavia porcellus) ileum; experiment: Smooth muscle constriction force assay, guinea pig ileum
Method: Male guinea pigs (Cavia porcellus) weighing between 200 and 300 g and fasted for 24 h were euthanized using an overdose of anesthetic at 120 mg/kg (ketamine and xylazine). The protocol was approved by the Committee on the Ethics of Animal Experiments of the Institute of Biology, University of Brasilia (Proc. Number 737402/2008). Segments of 2 cm from the terminal portion of the ileum were removed and washed in Tyrode’s solution (g/L: 8.00 NaCl,0.20 KCl, 0.20 CaCl2, 0.21 MgCl2), and attached to a glass rod that was immersed in a physiological bath chamber with a capacity of 10 mL containing Tyrode solution at 37 °C. In the opposite region, a thread of silk was attached to the F-60 isometric transducer connected to a polygraph (NARCO Bio-Systems, Houston, TX, USA). The bath was kept aerated constantly with carbogen (95% O2 + 5% CO2). Previously, as a control, smooth muscle response was analyzed using Bk from Sigma Aldrich. Experiments were done in triplicate, and constriction force was analyzed by addition of Bk and analogues in the absence or presence of BTCI, in three concentrations: 1, 5 or 10 µM. The hypotensive effects of the complexes were also evaluated in the presence of trypsin or chymotrypsin. After each experiment, the bath solution was exchanged three times in order to remove the drug used. Statistical analysis was carried out using the Paleontological Statistics (PAST) Software Package for Education and Data Analysis. A value of Student’s t-test p < 0.05 was considered to denote a significant difference.

[5] = Cardiovascular effects of infusion of Bk and Bk-related peptides with BTCI or vehicle in anesthetized rats; format: in vivo, male Wistar rats; conditions: for aortic vasodilation (change in AVC) / change in mean arterial pressure (MAP) / renal vasodilation (change in RVC): from the baseline value, mean ± SEM, 6 experiments
Method: All experiments were conducted on adult male Wistar rats (280–350 g). They were obtained from the central animal house of the Federal University of Goiás. Experimental procedures were designed with strict adherence to the National Health Institute Guidelines for Care and Use of Laboratory Animals as approved by the Ethics Committee, Federal University of Goiás (034/12).
On the day of experiments, the rats were anesthetized with halothane (2%–3% in 100% O2; Cristália Ltda, Itapira, SP, Brazil) prior to the catheterization of the right femoral vein and artery. After the catheter placement, the rats were removed from the halothane and the anesthesia was maintained with urethane (1.2 g·kg^−1 b.wt., i.v.; Sigma-Aldrich Co.). The trachea was cannulated to reduce airway resistance. The body temperature was kept at 37 ± 0.5 °C with a thermostatically controlled heated table.
Renal blood flow (RBF) and aortic blood flow (ABF) were measured with an ultrasonic transit-time flowmeter (Transonic Systems, Inc., Ithaca, NY, USA). Data were recorded continuously with an analog-to-digital converter (PowerLab 4/25, ML845, AD Instruments, Bella Vista, Australia). Mean arterial pressure (MAP) was determined from the pulsatile signal. Aortic vascular conductance (AVC) and renal vascular conductance (RVC) were calculated by a ratio of ABF and RBF divided by MAP, and were expressed as percentage of baseline. Increasing doses of BTCI (0.3, 3, 30 and 300 µg·kg^−1, i.v.) were infused.
Results are presented as means ± S.E.M. The effects of infusion of Bk, Bk-related peptides and BTCI on cardiovascular parameters were analyzed by one-way ANOVA. […] A value of Student’s t-test p < 0.05 was considered to denote a significant difference.

[6] = molecular target: Bk1, [Val]1[Thr]6-bradykinyl-Val-Asp relative to bradykinin: R1V;S6T; C-terminal extension Val10-Asp11; experiment: Intrinsic tryptophan (Trp82) fluorescence quenching titration; excitation 295 nm, emission 300-400 nm (analysed at 355 nm); conditions: 25 °C, not stated for the fluorescence assays at pH 5.0, 7.4 and 9.0 (2 mM Tris-HCl pH 7.4 is given only for DLS and CD)
[7] = molecular target: Bk2, [Val]1[Thr]6-bradykinyl-Gln-Ser relative to bradykinin: R1V;S6T; C-terminal extension Gln10-Ser11; experiment: as above; conditions: 25 °C, not stated for the fluorescence assays at pH 5.0, 7.4 and 9.0 (2 mM Tris-HCl pH 7.4 is given only for DLS and CD)
Bradykinin (Bk) = Bradykinin (Bk) (UniProt P01042); experiment: as above; conditions: 25 °C, not stated for the fluorescence assays at pH 5.0, 7.4 and 9.0 (2 mM Tris-HCl pH 7.4 is given only for DLS and CD)
trypsin = experiment: Pretreatment of peptides with trypsin; format: in vitro ADME
[8] = peptide 120 µg·kg^−1 + BTCI 3 µg·kg^−1, i.v.
[9] = peptide 120 µg·kg^−1 i.v. + BTCI 3 µg·kg^−1 i.v.
[10] = peptide 120 µg·kg^−1 i.v., without BTCI

Chain of UniProt P01042 (P01042 whole entry, looked up): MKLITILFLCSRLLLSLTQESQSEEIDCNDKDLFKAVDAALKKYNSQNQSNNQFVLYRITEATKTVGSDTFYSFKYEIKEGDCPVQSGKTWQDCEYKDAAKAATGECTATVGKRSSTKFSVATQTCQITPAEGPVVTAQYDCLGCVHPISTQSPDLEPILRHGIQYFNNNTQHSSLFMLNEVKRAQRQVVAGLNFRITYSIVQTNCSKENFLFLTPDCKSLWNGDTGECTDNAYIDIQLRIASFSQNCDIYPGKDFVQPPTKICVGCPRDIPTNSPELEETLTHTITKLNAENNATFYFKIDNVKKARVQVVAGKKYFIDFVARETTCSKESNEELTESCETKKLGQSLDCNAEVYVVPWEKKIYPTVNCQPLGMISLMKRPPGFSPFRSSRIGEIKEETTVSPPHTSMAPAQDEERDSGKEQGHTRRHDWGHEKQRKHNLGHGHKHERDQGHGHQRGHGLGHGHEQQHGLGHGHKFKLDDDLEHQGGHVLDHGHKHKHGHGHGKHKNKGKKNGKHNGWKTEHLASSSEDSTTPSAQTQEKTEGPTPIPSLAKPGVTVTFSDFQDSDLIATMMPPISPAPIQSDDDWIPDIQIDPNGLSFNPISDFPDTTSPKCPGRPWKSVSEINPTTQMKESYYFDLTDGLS

## Bradykinin [Bk, reference compound]
[1]
  polydispersity, peptide: lower than 0.15
BTCI [2]
  hydrodynamic diameter of BTCI in the presence of peptide: increased from 1.7 nm to 3.3 nm
BTCI [3]; pH 5.0, 25 °C
  binding sites (n) per BTCI molecule: 0.88
  Binding constant Kb (association) of BTCI in complex with peptide: 210 M⁻¹
  Stern-Volmer quenching constant KSV of BTCI in complex with peptide: 502 M⁻¹
BTCI [3]; pH 7.4, 25 °C
  binding sites (n) per BTCI molecule: 1.39
  Binding constant Kb (association) of BTCI in complex with peptide: 9680 M⁻¹
  Stern-Volmer quenching constant KSV of BTCI in complex with peptide: 553 M⁻¹
BTCI [3]; pH 9.0, 25 °C
  binding sites (n) per BTCI molecule: 1.06
  Binding constant Kb (association) of BTCI in complex with peptide: 710 M⁻¹
  Stern-Volmer quenching constant KSV of BTCI in complex with peptide: 468 M⁻¹
BTCI [3]; peptide 25 to 500 µM
  fluorescence intensity of BTCI (Trp^82) on addition of peptide: progressive decrease in fluorescence intensity
[4]; Bk 5.0 µM
  effect of BTCI on Bk-induced smooth muscle contraction: slightly increased the smooth muscle contraction
[4]; Bk 10.0 µM
  effect of BTCI on Bk-induced smooth muscle contraction: the same effect only when BTCI inhibited trypsin
[4]; free peptide, 1, 5, 10 µM, 37 °C, triplicate
  smooth muscle contraction: able to induce smooth muscle contraction in a concentration-responsive manner
[4]; with BTCI and trypsin or chymotrypsin, 1.0, 5.0, 10.0 µM
  smooth muscle contraction in association with BTCI in the presence of serine proteases: able to induce smooth muscle contraction in a concentration-responsive manner even in association with BTCI in the presence of serine proteases
[5]; [8]
  effect of association with BTCI on aortic vasodilation: potentiated
  effect of association with BTCI on renal vasodilation: potentiated renal
[5]; [9]
  aortic vasodilation (change in AVC): 16 ± 1.4%
  change in mean arterial pressure (MAP): −10 ± 1.1 mmHg
  renal vasodilation (change in RVC): 12 ± 1.1%
[5]; [10]
  aortic vasodilation (change in AVC): 9 ± 1.6%
  change in mean arterial pressure (MAP): −7 ± 1.2 mmHg
  renal vasodilation (change in RVC): 9 ± 2%

## Black-eyed pea trypsin and chymotrypsin inhibitor (BTCI), Bowman-Birk inhibitor
[6]; pH 5.0
  Kb: 0.84 ×10^3 M^−1
[6]; pH 7.4
  Kb: 1.02 ×10^3 M^−1
[6]; pH 9.0
  Kb: 0.23 ×10^3 M^−1
[7]; pH 5.0
  Kb: 0.59 ×10^3 M^−1
[7]; pH 7.4
  Kb: 0.22 ×10^3 M^−1
[7]; pH 9.0
  Kb: 1.81 ×10^3 M^−1
Bradykinin (Bk); pH 5.0
  Kb: 0.21 ×10^3 M^−1
Bradykinin (Bk); pH 7.4
  Kb: 9.68 ×10^3 M^−1
Bradykinin (Bk); pH 9.0
  Kb: 0.71 ×10^3 M^−1

## VPPGFTPFRVD [Bk1, [Val]^1[Thr]^6-bradykinyl-Val-Asp]
trypsin; HPLC and mass spectrometry, data not shown
  product released by trypsin pretreatment in vitro: release the active Bk fragment
trypsin; pretreatment with trypsin
  cleavage by trypsin (site): cleaved on Arg^9-Val^10
